Here are results for 7 compounds from paper PMC6752721 (Chembiochem : a European journal of chemical biology, 2019).

Each structure is given as a SMILES string. Where a SMILES comes first, the peptide text is derived from it. [ ]: non-standard residue; d: D form. The star is where a group is joined. Decanoyl = CCCCCCCCCC(=O)*; Orn = NCCC[C@H](N)C(=O)O; Dap = NC[C@H](N)C(=O)O; NHDecyl = CCCCCCCCCCN*

Data set [1] deals with HeLa cells. Description: Cytosolic entry efficiency of naphthofluorescein. Format: cell-based. Conditions: 10% FBS, flow cytometry; for fold increase in CPP activity (cellular entry efficiency) relative to peptide 4 / fold decrease in CPP activity (cellular entry efficiency) relative to peptide 4: 5 μM NF-labeled peptide, 2 h. For orientation: A flow cytometer gives signals particle by particle.

For data set [2], the system named is HeLa cells. The data set can be described thus: MTT cytotoxicity assay. Format: cell-based. In general terms: Formazan colour is commonly taken as a measure of viable cells.

In the case of `CCCCCCCCCC(=O)NCCC[C@@H]1NC(=O)[C@H](CCC(N)=O)NC(=O)[C@H](CCCNC(=N)N)NC(=O)[C@H](CCCNC(=N)N)NC(=O)[C@H](CCCNC(=N)N)NC(=O)[C@H](CCCNC(=N)N)NC1=O` [compound 15] (cyclo([Orn](Decanoyl)RRRRQ)), the “fold increase in CPP activity (cellular entry efficiency) relative to peptide 4” value in the data set on HeLa cells [1] came out at 2 fold. Regarding `CCCCCCCCCC(=O)NC[C@@H]1NC(=O)[C@H](CCC(N)=O)NC(=O)[C@@H](CCCNC(=N)N)NC(=O)[C@H](CCCNC(=N)N)NC(=O)[C@@H](CCCNC(=N)N)NC(=O)[C@H](CCCNC(=N)N)NC1=O` [compound 9] (cyclo([Dap](Decanoyl)R[dR]R[dR]Q)), the “fold decrease in CPP activity (cellular entry efficiency) relative to peptide 4” value in the data set with HeLa cells [1] was ~ 3 fold. Still for that read-out and setting: with `CCCCCCCCCC(=O)NC[C@@H]1NC(=O)[C@H](CCC(N)=O)NC(=O)[C@H](CCCNC(=N)N)NC(=O)[C@@H](CCCNC(=N)N)NC(=O)[C@H](CCCNC(=N)N)NC(=O)[C@@H](CCCNC(=N)N)NC1=O` [compound 10] (cyclo([Dap](Decanoyl)[dR]R[dR]RQ)) the figure was ~ 3 fold.

Turning to `CCCCCCCCCCNC(=O)C[C@@H]1NC(=O)[C@H](CCC(N)=O)NC(=O)[C@H](CCCNC(=N)N)NC(=O)[C@H](CCCNC(=N)N)NC(=O)[C@H](CCCNC(=N)N)NC(=O)[C@H](CCCNC(=N)N)NC1=O` [peptide 17] (cyclo(D(NHDecyl)RRRRQ)), the “reduction of cell viability” value in the data set with HeLa cells [2] (≤25 μM peptide, not concentration-dependent) is given as ~ 30%. Further, in the data set on HeLa cells [2] (≥50 μM peptide), the “effect on cell viability at higher concentrations” value was “significant loss of HeLa cell viability”. For the same compound, in the data set on HeLa cells [1], the “fold increase in CPP activity (cellular entry efficiency) relative to peptide 4” value is ~ 5 fold and the “fold more active than CPP12 (cellular entry efficiency)” value came out at 2.8 fold. Consider `CCCCCCCCCC(=O)NC[C@@H]1NC(=O)[C@H](CCC(N)=O)NC(=O)[C@H](CCCNC(=N)N)NC(=O)[C@H](CCCNC(=N)N)NC(=O)[C@H](CCCNC(=N)N)NC(=O)[C@H](C)NC1=O` [compound 12] (cyclo(ARRRQ[Dap](Decanoyl))), for which the “fold decrease in CPP activity (cellular entry efficiency) relative to peptide 4” value in the data set with HeLa cells [1] was ~ 2 fold. Same read-out and setting: with `CCCCCCCCCC(=O)NC[C@@H]1NC(=O)[C@H](CCC(N)=O)NC(=O)[C@H](CCCNC(=N)N)NC(=O)[C@H](CCCNC(=N)N)NC(=O)[C@H](CCCNC(=N)N)NC(=O)[C@H](CCCNC(=N)N)NC(=O)[C@H](CCCNC(=N)N)NC1=O` [peptide 14] the figure was approximately 5 fold. For `CCCCCCCCCC(=O)NCCCC[C@@H]1NC(=O)[C@H](CCC(N)=O)NC(=O)[C@H](CCCNC(=N)N)NC(=O)[C@H](CCCNC(=N)N)NC(=O)[C@H](CCCNC(=N)N)NC(=O)[C@H](CCCNC(=N)N)NC1=O` [peptide 16] (cyclo(K(Decanoyl)RRRRQ)), the “fold increase in CPP activity (cellular entry efficiency) relative to peptide 4” value in the data set with HeLa cells [1] was 1.3 fold.
